Legend:
Format in all cases: functional, organism-based
Influenza B virus [1] = test: The compound was tested in vitro for the inhibitory concentration against influenza B/Mem/89 sialidase from whole virus by fetuin assay
Influenza B virus [2] = test: The compound was tested in vitro for the inhibitory concentration against influenza B/Mem/89 sialidase from whole virus by MUN assay
Influenza A virus [3] = test: The compound was tested in vitro for the inhibitory concentration against influenza N2 sialidase from whole virus by MUN assay
Influenza A virus [4] = test: The compound was tested in vitro for the inhibitory concentration against influenza N2 sialidase from whole virus by fetuin assay

Row | Compound | IC50 (Influenza B virus [1]) | IC50 (Influenza B virus [2]) | IC50 (Influenza A virus [3]) | IC50 (Influenza A virus [4])
1 | CC(=O)Nc1ccc(C(=O)O)cc1NC(=O)CO | 10 mM | 3 mM | 4 mM | > 10 mM
2 | CC(=O)Nc1ccc(C(=O)O)cc1NC(=O)CCCN | > 10 mM | > 10 mM | > 10 mM | > 10 mM
3 | CC(=O)N[C@H]1[C@H]([C@H](O)[C@H](O)CO)OC(C(=O)O)=C[C@@H]1O [NEU5AC2EN] | 0.015 mM | 0.015 mM | 0.015 mM | 0.015 mM
4 | CC(=O)Nc1ccc(C(=O)O)cc1NC(=O)C(O)CO (stereo not drawn) | > 10 mM | 8 mM | 5 mM | 4 mM
5 | CC(=O)Nc1ccc(C(=O)O)cc1OC(C)=O | 5 mM | > 10 mM | > 10 mM | 10 mM
6 | CC(=O)Nc1cc([N+](=O)[O-])c(C(=O)O)c([N+](=O)[O-])c1O | 4 mM | 1 mM | 1 mM | 3 mM
7 | CC(=O)Nc1c(O)cc(C(=O)O)cc1[N+](=O)[O-] | 1 mM | 0.75 mM | 0.75 mM | 1 mM
8 | CC(=O)Nc1c(N)cc(C(=O)O)cc1O | > 10 mM | 10 mM | > 10 mM | > 10 mM
9 | CC(=O)Nc1ccc(C(=O)O)cc1N |  | > 20 mM | > 10 mM | > 10 mM
10 | CC(=O)Nc1ccc(C(=O)O)cc1O [3-HYDROXY-4-ACETYLAMINOBENZOIC ACID] | 10 mM | > 10 mM | > 10 mM | 10 mM
11 | CC(=O)Nc1ccc(C(=O)O)cc1[N+](=O)[O-] | 5 mM | 5 mM | 5 mM | 5 mM
12 | CC(=O)NC1C(O)CC(O)(C(=O)O)OC1[C@H](O)[C@H](O)CO (stereo partly drawn) |  | > 10 mM |  | 
13 | CC(=O)Nc1c(OC(C)=O)cc(C(=O)O)cc1[N+](=O)[O-] | 4 mM | 2 mM | 5 mM | 3 mM

Reference: ChEMBL document CHEMBL1128587, “Structure-based inhibitors of influenza virus sialidase. A benzoic acid lead with novel interaction” (J Med Chem, 1995)
